From patent US8147883B1, “Use of a plant oil product as an agent for increasing the synthesis of skin lipids” (Laboratoires Expanscience, priority 1999, dated 2012)
Values joined by “and” are separate entries in the source; they are usually repeats but may differ in a detail not shown here. Equal entries are not always repeated. Marks after values point to notes of the source that are not given here.

Legend:
[1] = system: disks of whole human skin; test: Nature of the neosynthesized epidermal lipids (thin layer chromatography of 14C-labeled lipids) in whole human skin disks; type: cell-based; design: neosynthesis of cholesteryl sulfate, percentage of the control group: concentration or dose not given beside the values
Experimental: (§1) The study is performed in vitro in an organotypical model of whole human skin in culture. Two techniques successively used: • measurement of the incorporation of acetate radiolabeled with carbon 14 into the neosynthesized epidermal lipids in toto; • analysis by thin layer chromatography to separate the main classes of neosynthesized radiolabeled epidermal lipids.
(§2) A fragment of human skin was collected after an abdominal plastic surgery-operation. This was performed on a person (subject I0129). Skin disks 8 mm in diameter were cut out using a sample punch.
(§3) The skin disks are placed in gondolas. The gondolas are placed in culture wells containing MCF medium, composed of MEM/M199 medium (3/4, 1/4; v/v) supplemented with penicillin (50 IU/ml), streptomycin (50 μg/ml), sodium bicarbonate (0.2%, w/v) and FCS (2%, v/v).
(§4) The test products are tested undiluted. They are placed at the center of each human skin disk, in a proportion of 10 mg/cm^2. The incubation medium for the human skin disks (MIF medium) is composed of MCF medium containing 1 μCi/ml of acetate labeled with carbon 14 (Amersham, specific activity: 57 mCi/mmol).
(§5) The lactic acid is used in topical application (10 mg/cm^2).
(§6) The human skin disks are incubated in the presence of the test products and the reference products for 18 hours at 37° C. in a humid atmosphere containing 5% CO2.
(§7) Each experimental condition is performed in quadruplicate.
Starting with the samples of extracted lipids, 20 μl aliquots, corresponding to 3 700 cpm, are placed on silica 60 (Merck) chromatography plates. These plates are developed in three successive solvents: • 38/2/10 chloroform/acetone/methanol (v/v/v), • 40/5/5 chloroform/acetone/methanol (v/v/v), • 36/10/3/1 chloroform/ethyl acetate/ether/methanol (v/v/v/v).
This system makes it possible to separate the cholesteryl sulfate, the cerebrosides, the ceramides, the cholesterol and the tri-+diglycerides. The most polar lipids, referred to hereinbelow as “polar lipids”, remain on the base line.
The silica plates are then placed in exposure with films for autoradiography for 15 days (Amersham, Hyperfilm beta max).
The position of the various classes of lipids—polar lipids, cholesteryl sulfate, cerebrosides, ceramides 1 and 2, cholesterol and tri-+diglycerides—is determined using suitable standards.
The results are expressed as percentages of the radioactivity of the total lipids neosynthesized and deposited on the TLC.

[2] = system: disks of whole human skin; test: Neosynthesis of the total epidermal lipids (14C-acetate incorporation) in organotypical model of whole human skin in culture; type: cell-based; conditions: incubation 18 hours
Experimental: as §1, §2, §3, §4, §5, §6, §7
At the end of the incubation, the human skin disks are rinsed thoroughly with PBS buffer. The epidermis of each skin disk is dissociated from the dermis by means of a controlled heat shock (MilliQ water, 2 min, 62° C.) The epidermises thus dissociated are digested with trypsin (ICN, 1%, w/v) overnight at 37° C. The cell dissociation is facilitated by the action of ultrasound. […]
The radioactivity of each sample, corresponding to the amount of acetate incorporated into the neosynthesized lipids, is measured by liquid scintillation. […]

[3] = percentage of the radiolabeled total lipids applied onto the TLC, mean of 4 disks, 18 hours
[4] = percentage of the radiolabeled total lipids applied onto the TLC, single disks, 18 hours

EGF: epidermal growth factor obtained from R&D Systems, reference product tested at 10 ng/ml
neosynthesis of ceramide 1, percentage of the control group ([1]; 18 hours): 120%
neosynthesis of ceramide 2, percentage of the control group ([1]; 18 hours): 155%
neosynthesis of cerebrosides, percentage of the control group ([1]; 18 hours): 125%
neosynthesis of cholesterol, percentage of the control group ([1]; 18 hours): 128%
neosynthesis of cholesteryl sulfate, percentage of the control group ([1]; 18 hours): 54%
neosynthesis of polar lipids, percentage of the control group ([1]; 18 hours): 119%
neosynthesis of ceramide 1, mean [1, 3]: 2.72%
neosynthesis of ceramide 2, mean [1, 3]: 3.00* %
neosynthesis of cerebrosides, mean [1, 3]: 3.87%
neosynthesis of cholesteryl sulfate, mean [1, 3]: 3.00* %
neosynthesis of polar lipids, mean [1, 3]: 38.23%
neosynthesis of tri- + diglycerides, mean [1, 3]: 45.10%
neosynthesis of ceramide 1, individual skin disk [1, 4]: 2.02% and 1.41% and 3.41% and 4.02%
neosynthesis of ceramide 2, individual skin disk [1, 4]: 3.81% and 2.38% and 2.74% and 3.05%
neosynthesis of cerebrosides, individual skin disk [1, 4]: 2.87% and 3.82% and 4.77% and 4.02%
neosynthesis of cholesterol, individual skin disk [1, 4]: 7.07% and 9.46% and 7.86% and 9.99%
neosynthesis of cholesteryl sulfate, individual skin disk [1, 4]: 2.31% and 3.69% and 3.44% and 2.57%
neosynthesis of polar lipids, individual skin disk [1, 4]: 57.27% and 34.42% and 27.69% and 33.53%
neosynthesis of tri- + diglycerides, individual skin disk [1, 4]: 42.67% and 44.82% and 50.08% and 42.83%
increase of the neosynthesis of ceramide 2 ([1]; versus control): 55%
reduction of the neosynthesis of cholesteryl sulfate ([1]; versus control): 46%
neosynthesis of the total epidermal lipids, percentage of the control group ([2]; topical 10 mg/cm2, EGF 10 ng/ml): 122%
neosynthesis of the total epidermal lipids, mean ([2]; mean of 4 disks, topical 10 mg/cm2, EGF 10 ng/ml): 4080.02 cpm/mg of epidermis
neosynthesis of the total epidermal lipids, individual skin disk ([2]; single disks of quadruplicate, compositions and lactic acid undiluted 10 mg/cm2 topical, EGF 10 ng/ml in medium): 3104.63 cpm/mg of epidermis and 5043.66 cpm/mg of epidermis and 3606.76 cpm/mg of epidermis and 4565.02 cpm/mg of epidermis
